{
  "source": "patent US5880119A",
  "about": "“Mercaptoacetylamino 1,3,4,5-tetrahydro-benzo(C)azepin-2-one disulfide derivatives useful as inhibitors of enkephalinase and ACE” (Merrell Pharmaceuticals Inc., priority 1997, dated 1999)",
  "target": "T1, ACE (Angiotensin-Converting Enzyme) of rat kidney preparations (Rattus norvegicus, UniProt P47820)",
  "T1 construct": "compound- or vehicle-dosed rat kidney preparations; from tissue; host or cells: kidney of male Sprague-Dawley rats",
  "T1 sequence (P47820 36-1313)": "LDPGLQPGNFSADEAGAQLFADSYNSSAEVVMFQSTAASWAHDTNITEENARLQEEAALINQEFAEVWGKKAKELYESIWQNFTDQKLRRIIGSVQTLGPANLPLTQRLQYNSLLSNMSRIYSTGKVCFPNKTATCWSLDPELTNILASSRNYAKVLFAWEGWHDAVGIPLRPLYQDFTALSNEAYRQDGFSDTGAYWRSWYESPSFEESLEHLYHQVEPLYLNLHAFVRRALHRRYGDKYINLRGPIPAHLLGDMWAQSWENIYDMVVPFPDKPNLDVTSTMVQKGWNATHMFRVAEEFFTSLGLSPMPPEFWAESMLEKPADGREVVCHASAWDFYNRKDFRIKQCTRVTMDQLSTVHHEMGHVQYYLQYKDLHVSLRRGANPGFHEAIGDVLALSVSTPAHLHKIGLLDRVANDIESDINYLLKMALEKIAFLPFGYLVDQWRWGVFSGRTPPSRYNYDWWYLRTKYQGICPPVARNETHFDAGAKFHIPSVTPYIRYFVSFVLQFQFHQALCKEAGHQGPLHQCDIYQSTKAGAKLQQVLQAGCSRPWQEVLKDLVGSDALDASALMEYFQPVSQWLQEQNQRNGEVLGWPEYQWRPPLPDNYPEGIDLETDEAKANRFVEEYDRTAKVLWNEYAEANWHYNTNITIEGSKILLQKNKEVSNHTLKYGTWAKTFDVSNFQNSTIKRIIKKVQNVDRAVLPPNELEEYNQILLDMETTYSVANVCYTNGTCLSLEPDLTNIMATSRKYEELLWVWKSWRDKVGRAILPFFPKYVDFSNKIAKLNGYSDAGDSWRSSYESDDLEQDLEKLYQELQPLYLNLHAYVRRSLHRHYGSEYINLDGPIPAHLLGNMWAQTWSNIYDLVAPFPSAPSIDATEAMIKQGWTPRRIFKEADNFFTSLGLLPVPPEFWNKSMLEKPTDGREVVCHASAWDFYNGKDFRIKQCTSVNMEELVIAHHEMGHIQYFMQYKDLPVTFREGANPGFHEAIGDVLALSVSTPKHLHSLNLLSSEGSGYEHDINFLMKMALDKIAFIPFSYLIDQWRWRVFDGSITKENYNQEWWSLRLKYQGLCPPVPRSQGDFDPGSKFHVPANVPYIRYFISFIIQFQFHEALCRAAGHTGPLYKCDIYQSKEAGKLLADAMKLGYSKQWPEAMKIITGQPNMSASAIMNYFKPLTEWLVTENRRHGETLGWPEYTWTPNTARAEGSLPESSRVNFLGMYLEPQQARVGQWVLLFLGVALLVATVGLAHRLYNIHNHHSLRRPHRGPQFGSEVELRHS",
  "assay": "Radiometric ACE activity assay on rat kidney preparations",
  "assay_type": "biochemical, rat (Sprague-Dawley)",
  "details": "1 μM enalaprilat; substrate tritiated hippuryl-glycyl-glycine; compound- or vehicle-dosed rat kidney preparations",
  "data": [
    {"smiles": "C[C@H](N[C@@H](CCc1ccccc1)C(=O)O)C(=O)N1CCC[C@H]1C(=O)O", "note": "[enalaprilat]", "values": [
      {"measurement": "inhibition of radioactive product formation", "value": "Complete inhibition"}
    ]}
  ]
}
